Legend:
[1] = test system: S. cerevisiae strain ATCC201388; assay: Frequency of spontaneous resistance; format: cell-based, Saccharomyces cerevisiae; conditions: spontaneous mutants, at 4×MIC
Method: Resistant mutants appeared after 2 d incubation at 30° C. Frequency of resistance was determined by dividing the number of resistant mutants by the total number of cells plated as determined by plating dilutions of the overnight culture on YPD plates.

[2] = Nail penetration, 14-day dosing of radiolabeled compound (Hui protocol); format: in vitro ADME
Method: Two nail penetration studies were performed based on the protocol in Hui et al., Journal of Pharmaceutical Sciences, 91(1): 189-195 (2002) (“Hui protocol”). The purpose of this study was to determine and compare the penetration and distribution of C10 in vehicle into the human nail plate in vitro relative to 8% ciclopirox w/w in commercial lacquer (Penlac®).
The study was composed of two groups. The compositions (weight %) of the dosage formulations are as follows: […]
Healthy human finger nail plates were collected from adult human cadavers and stored in a closed container at 0-4° C. Before the experiment, the nail plates were gently washed with normal saline to remove any contamination, then re-hydrated by placing them for three hours on a cloth wetted with normal saline. The nail samples were randomly selected into four groups.
Radioactivity of each group is approximately 0.19±0.01 and 0.22±0.03 μCi/10 μL solutions respectively, for ^14C—C10 (group A), and ^14C-ciclopirox (group C).
Surface washing was started in morning 10 min prior to next dosing, the surface of the nail was washed with cotton tips in a cycle, as follows:
A Teflon one-chamber diffusion cell (PermeGear, Inc., Hellertown, Pa.) was used to hold each nail. To approximate physiological conditions, a small cotton ball wetted with 0.1 mL normal saline was placed in the chamber to serve as a nail bed and provide moisture for the nail plate. Every 3 days, 0.1 mL normal saline was injected through the inlet into the chamber to keep the cotton ball wet. The nail plate was placed on a ledge inside the receptor (1.0 cm in diameter and 0.5 cm high). The ventral (inner) surface of the nail was placed face down and rested on the wet cotton ball. The cells were placed on a platform in a large glass holding tank filled with saturated sodium phosphate solution to keep the cells at a constant humidity of 40%.
After completion of the incubation phase, the nail plate was transferred from the diffusion cell to a clean copper nail holder for sampling process. The nail plate was inverted so that the ventral (nail bed) surface now faced up and the dorsal (outer) dosed surfaced faced down. The copper nail holder has an opening as it sits on top of the stage. When the sampling process initiated, the coarse adjustment was adjusted to move the position of the stage until the nail plate was just touching the tip of the cutter. Then the drill was turned on and the fine adjustment was turned to push the stage closer to the drill, removing a nail core sample. After the above process, approximate 0.40-0.50 mm in depth and 7.9 mm in diameter nail pulverized samples were harvested from the center of the ventral (nail bed) surface of the nail.
The powdered nail samples were collected into a glass scintillation vial and weighted. Aliquots of 5.0 mL Packard soluene-350 (Packard Instrument Company, Meriden, Conn.) was added to the scintillation vial to dissolve the powder. The upper part, the intermediate and dorsal layers of the center of the nail, including the area of application of the dose was cut in the same diameter as the sampled area and was then placed into a glass scintillation vial with 5.0 mL packard soluene-350. The rest of the nail was also placed in a glass scintillation vial with 5.0 mL packard soluene-350.
All radioactivity measurements were conducted with a Model 1500 Liquid Scintillation Counter (Packard Instrument Company, Downer Grove, Ill.). The counter was audited for accuracy using sealed samples of quenched and unquenched standards as detailed by the instrument manual. The ^14C counting efficiency is equal to or greater than 95%. All nail samples pre-treated with packard soluene-350 were incubated at 40° C. for 48 hours followed by the addition of 10 mL scintillation cocktail (HIONIC-FLUOR, Packard Instrument Company, Meriden, Conn.). […]

[3] = test system: T. rubrum; assay: MIC in the presence of 5% keratin powder; format: cell-based, Trichophyton rubrum
Method: Many antifungal agents strongly bind to keratin which not only reduces their antifungal potency but also may restrict their penetration into the nail. The affinities of the compounds for keratin powder was determined by a method described in Tatsumi, Antimicrobial Agents and Chemotherapy, 46(12):3797-3801 (2002).
(C10) is a novel compound in development for use as a topical antifungal treatment. The purpose of this study was to determine the minimum inhibitory concentration (MIC) for (C10) against 19 test strains of fungi including: Aspergillus fumigatus (A. fumigatus), Candida Albicans (C. albicans, both fluconazole sensitive and resistant strains), Candida glabrata (C. glabrata), Candida krusei (C. krusei), Cryptococcus neoformans (C. neoformans), Candida parapsilosis (C. parapsilosis), Candida tropicalis (C. tropicalis), Epidermophyton floccosum (E. floccosum), Fusarium solani (F. solani), Malassezia furfur (M. furfur), Malassezia pachydermatis (M. pachydermatis), Malassezia sympodialis (M. sympodialis), Microsporum audouinii (M. audouinii), Microsporum canis (M. canis), Microsporum gypseum (M. gypseum), Trichophyton mentagrophytes (T. mentagrophytes), Trichophyton rubrum (T. rubrum), Trichophyton tonsurans (T. tonsurans). Fungal growth was evaluated after exposure to different concentrations of (C10). […]

In the case of `OB1OCc2cc(F)ccc21` [C10, 5-fluorobenzo[c][1,2]oxaborol-1(3H)-ol], the frequency of resistance [1] was 1.2×10^−7, the “absolute amount of drug equivalent per cotton ball sample versus ciclopirox” value [2] was “significantly higher” and the “amount of equivalent in ventral/intermediate center of the nail layer and cotton ball supporting bed versus group C (ciclopirox)” value [2] was “statistically higher”. The “weight normalized concentration of drug equivalent in nail samples versus ciclopirox equivalent” value ([2]; dorsal/intermediate center, ventral/intermediate center and remainder nail, 14-day treatment, p≦0.002) was “significantly higher”, the “Cumulative radioactivity recoveries of carbon-14” value ([2]; human, 14 day) was 88±9.21% of applied dose and the “difference of the two test chemicals in cotton ball supporting bed (C10 versus ciclopirox)” value ([2]; human, 14 day) was 250 times. For the same compound, the “effect of addition of 5% keratin powder to the media on MIC” value [3] was “did not effect the MIC”.

Reference: patent publication US9566290B2, “Boron-containing small molecules” (Anacor Pharmaceuticals, Inc., priority 2005, dated 2017)
